Consider eight compounds from patent US7452911B2 (Boehringer Ingelheim Pharma GmbH & Co. KG, priority 2002, dated 2008).

By melting point is commonly meant the temperature, or range, at which the solid turns liquid. By IC50 is commonly meant the concentration at which inhibition is half-maximal. A higher IC50 goes with weaker potency.

Series [1] concerns the target T1, hMCH-1R (Homo sapiens, UniProt Q99705).
T1 construct: expressed in transfected cells; host or cells: CHO/Galpha16 cells, stably transfected; membrane preparation
Nature of the series: MCH-1 receptor binding test (125I-MCH binding to membranes of hMCH-1R transfected CHO/Galpha16 cells). As to conditions: 100 pM 125I-MCH, membranes of CHO/Galpha16 cells stably transfected with hMCH-1R, 60 minutes at ambient temperature. On the procedure:
Membranes from CHO/Galpha16 cells stably transfected with human hMCH-1R are resuspended using a syringe (needle 0.6×25 mm) and diluted in test buffer (50 mM HEPES, 10 mM MgCl2, 2 mM EGTA, pH 7.00; 0.1% bovine serum albumin (protease-free), 0.021% bacitracin, 1 μg/ml aprotinin, 1 μg/ml leupeptin and 1 μM phosphoramidone) to a concentration of 5 to 15 μg/ml. […] After the incubation the reaction is filtered using a cell harvester through 0.5% PEI treated glass fibre filters (GF/B, Unifilter Packard). The membrane-bound radioactivity retained on the filter is then determined after the addition of scintillator substance (Packard Microscint 20) in a measuring device (TopCount of Packard).
The analysis of the concentration binding curve is carried out on the assumption of one receptor binding site.

Series [2] deals with T2, MCH-1R (Rattus norvegicus, UniProt P97639). Set-up: host or cells: rats (in vivo). The settings on record: rats; cited from earlier work.
For series [3], the target named is T2, MCH-1R. Also noted: host or cells: whole animals (in vivo). As to conditions: animals treated with the antagonist; cited from earlier work.

T2 sequence (P97639 whole entry): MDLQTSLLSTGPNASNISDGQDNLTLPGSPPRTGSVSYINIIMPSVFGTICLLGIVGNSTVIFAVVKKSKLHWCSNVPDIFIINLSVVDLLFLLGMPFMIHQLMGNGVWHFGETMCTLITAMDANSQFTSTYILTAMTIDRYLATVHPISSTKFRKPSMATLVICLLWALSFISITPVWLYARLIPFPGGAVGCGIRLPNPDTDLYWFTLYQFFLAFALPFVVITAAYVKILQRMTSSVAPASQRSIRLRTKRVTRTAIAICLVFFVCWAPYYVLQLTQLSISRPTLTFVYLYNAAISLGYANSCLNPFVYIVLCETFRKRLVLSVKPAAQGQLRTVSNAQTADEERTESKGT
T1 sequence (Q99705 whole entry): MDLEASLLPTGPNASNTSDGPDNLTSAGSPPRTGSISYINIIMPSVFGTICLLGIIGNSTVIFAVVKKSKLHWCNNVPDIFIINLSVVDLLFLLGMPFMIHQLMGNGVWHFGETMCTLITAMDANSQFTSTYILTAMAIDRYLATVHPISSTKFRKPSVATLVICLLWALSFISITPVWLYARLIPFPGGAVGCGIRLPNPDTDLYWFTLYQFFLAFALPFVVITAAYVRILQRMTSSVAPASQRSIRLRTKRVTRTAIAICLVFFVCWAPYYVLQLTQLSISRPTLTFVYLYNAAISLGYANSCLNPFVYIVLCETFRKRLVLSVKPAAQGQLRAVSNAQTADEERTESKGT

Compound `Clc1ccc(-c2ccc(C#Cc3ccc4oc(CN5CCCC5)nc4c3)nc2)cc1` [Example 21, 5-[5-(4-chloro-phenyl)-pyridin-2-ylethynyl]-2-pyrrolidin-1-ylmethyl-benzoxazole] showed a melting point of 145 °C. Same read-out and setting: then `Clc1ccc(-c2ccc3nc(C#Cc4ccc5oc(CN6CCCC6)nc5c4)ccc3c2)cc1` [Example 20, 6-(4-chloro-phenyl)-2-(2-pyrrolidin-1-ylmethyl-benzoxazol-5-ylethynyl)-quinoline], with 151 to 153 °C; and `CN(C)CC1CCN(CCOc2ccc(C#Cc3ccc(-c4ccc(Cl)cc4)cn3)cc2)CC1.Cl`, with over 250 °C. Regarding `Clc1ccc(-c2ccc3nc(C#Cc4cccc(OCCN5CCCC5)c4)ccc3c2)cc1` [Example 19, 6-(4-chloro-phenyl)-2-[3-(2-pyrrolidin-1-yl-ethoxy)-phenylethynyl]-quinoline], the melting point lay in the range of 114 to 117 °C.

`Clc1ccc(-c2ccc3nc(C#Cc4ccc(OCCN5CCCC5)cc4)ccc3c2)cc1` [Example 18, 6-(4-chloro-phenyl)-2-[4-(2-pyrrolidin-1-yl-ethoxy)-phenylethynyl]-quinoline]: the melting point was 176 to 185 °C. Still for that read-out and setting: then `Clc1ccc(-c2ccc3nc(C#Cc4ccc(CN5CCCC5)cc4)ccc3c2)cc1` [Example 17, 6-(4-chloro-phenyl)-2-(4-pyrrolidin-1-ylmethyl-phenylethynyl)-quinoline], with 170 to 193 °C. `CCN(CC)CCOc1ccc(C#Cc2ccc(-c3ccc(F)c(F)c3)cn2)cc1` [Example 1.3, (2-{4-[5-(3,4-difluoro-phenyl)-pyridin-2-ylethynyl]-phenoxy}-ethyl)-diethyl-amine] came in with an IC50 in series [1] of 0.074 µM. With `COCC1=C(C(=O)OC)[C@H](c2ccc(F)c(F)c2)N(C(=O)NCCCN2CCC(c3cccc(NC(C)=O)c3)CC2)C(=O)N1` [SNAP-7941], in series [2], the “effects in behavioural experiments” value is “anxiolytic and antidepressant effects”. Moreover, in series [3], the “body weight in long term trials” value is listed as “lose significant amounts of weight”.
